From patent US20260070917A1, “CYCLIN DEPENDENT KINASE DEGRADERS AND METHODS OF USE THEREOF” (Differentiated Therapeutics Inc, priority 2023, published 2026)

Experiments:
Format in all cases: cell-based
[1] = biological target: T1, CCNE1 (Homo sapiens, UniProt P24864); test: HiBit Assay Protocol for CCNE1 (HIBIT protein quantification, degradation); settings: HEK293-CCNE1-Hibit cells, compound treatment for 6 hours
T1 construct: host or cells: HEK293-CCNE1-Hibit
Protocol: HiBit Assay Protocol for CCNE1
(§1) • 1. The culture medium for HEK293-CCNE1-Hibit cell was prepared using EMEM with 1000 FBS. • 2. Cells were cultivated in T-75 flasks in a cell culture incubator set at 37° C., 5% CO2, 95% relative humidity. Cells were allowed to reach 80-90% confluence before detaching and splitting. • 3. Cultivated cells were rinsed in T-75 flasks with 5 mL PBS. Aspirate off Added was 1.5 mL trypsin, and the cells were incubated at 37° C. for approximately 5 minutes or until the cells detached and floated. • 4. Trypsin was inactivated by adding excess serum containing medium. • 5. Cells were harvested from flask into cell culture medium and then the cell number was counted. HEK293-CCNE1-Hibit cell were seeded into 384-well plate (cell density: 1.6×10^5 cells/well/50 uL medium) in EMEM medium according to the plate map below and incubated overnight at 37° C. and 500 CO2. • Note: Cell Cultured Medium: 90% EMEM+10% FBS+1% Penicillin-Streptomycin Liquid
(§2) • 1. Test compounds were dissolved at 10 mM DMSO stock solution. 45 μL of stock solution was transferred to a 384 pp-plate. A 3-fold, 10-point dilution was performed via transferring 15 uL compound into 30 uL DMSO by using TECAN liquid handler. • 2. The plates were spinned at room temperature at 1,000 RPM for 1 minute. • 3. 50 nL of diluted compound was transferred from compound source plate into the cell plate by Echo. • 4. After compound treatment for 6 hours, the plate was removed from incubators and equilibrated at room temperature for 15 minutes. The HiBit reagent was prepared, consisting of the following ratios: 10 mL of Nano-Glo®-HiBiT Lytic Buffer, 200 μL of Nano-Glo®-HiBiT Lytic Substrate and 100 μL of LgBiT Protein, mix thoroughly. 20 μL of HiBit reagent was added into each well and the plates were spinned at room temperature at 1,000 RPM for 1 minute to be detected. Then the plates were shaken at 600 RPM at room temperature for 20 minutes, and read by EnVision. • 5. The inhibition activity was calculated following the formula below:
(§3) [formula] • Note: Where HC is obtained from cells treated with […] only; LC is obtained from culture medium only. • 6. ABS DC50 was calculated by fitting the Curve using Xlfit (v5.3.1.3), equation 201: […]

[2] = biological target: T2, CDK2 (Homo sapiens, UniProt P24941); test: HiBit Assay Protocol for CDK2 (HIBIT protein quantification, degradation); settings: HEK293-CDK2-Hibit cells, compound treatment for 6 hours; for DC50: ABS DC50
T2 construct: host or cells: HEK293-CDK2-Hibit
Protocol: HiBit Assay Protocol for CDK2
as §1, with “HEK293-CDK2-Hibit cells” for “HEK293-CCNE1-Hibit cell”, “DMEM” for “EMEM”, “10%” for “1000”, “5%” for “500”, “DMEM+10%” for “EMEM+10%”
as §2, with “mM DMS” for “mM DMSO”, “45 uL” for “45 μL”, “100 uL” for “100 μL”, “Protein, mixed” for “Protein, mix”
as §3

[3] = biological target: T3, CDK9 (Homo sapiens, UniProt P50750); test: HiBit Assay Protocol for CDK9 (HIBIT protein quantification, degradation); settings: HEK293-CDK9-Hibit cells, compound treatment for 6 hours; for Dmax: 6 h, read-out: CDK9 HIBIT Protein Quantification Maximum
T3 construct: host or cells: HEK293-CDK9-Hibit
T3 sequence (P50750 whole entry): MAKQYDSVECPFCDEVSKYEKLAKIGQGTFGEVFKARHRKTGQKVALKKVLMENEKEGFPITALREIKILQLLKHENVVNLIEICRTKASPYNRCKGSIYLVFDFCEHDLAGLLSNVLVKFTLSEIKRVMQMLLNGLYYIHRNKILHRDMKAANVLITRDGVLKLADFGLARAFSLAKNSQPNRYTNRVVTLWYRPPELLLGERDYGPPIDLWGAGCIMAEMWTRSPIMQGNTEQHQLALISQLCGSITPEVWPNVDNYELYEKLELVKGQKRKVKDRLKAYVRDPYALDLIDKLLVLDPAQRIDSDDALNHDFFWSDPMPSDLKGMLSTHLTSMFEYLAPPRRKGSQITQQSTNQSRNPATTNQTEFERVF
Protocol: HiBit Assay Protocol for CDK9
• 1. The culture medium for HEK293-CDK9-Hibit cell was prepared using DMEM with 10% FBS. • 2. Cells were cultivated in T-75 flasks in a cell culture incubator set at 37° C., 5% CO2, 95% relative humidity. Cells were allowed to reach 80-90% confluence before detaching and splitting. • 3. Cultivated cells were rinsed in T-75 flasks with 5 mL PBS. Aspirated off. Added 1.5 mL trypsin, and incubated the cells at 37° C. for approximately 5 minutes or until the cells detached and floated. • 4. Trypsin was inactivated by adding excess serum containing medium. • 5. Cells were harvested from flask into cell culture medium and then the cell number was counted. HEK293-CDK9-Hibit cells were seeded into 384-well plate (cell density: 1.6×10^5 cells/well/50 uL medium) in DMEM medium according to the plate map below and were incubated overnight at 37° C. and 5% CO2. • Note: Cell Cultured Medium: 90% DMEM+10% FBS+1% Penicillin-Streptomycin Liquid
• 1. Test compounds were dissolved at 3 mM DMSO stock solution. Transferred 45 uL of stock solution to a 384 pp-plate. Perform 3-fold, 10-point dilution via transferring 15 uL compound into 30 uL DMSO by using TECAN liquid handler. • 2. The plates were spinned at room temperature at 1,000 RPM for 1 minute. • 3. Transferred 50 nL of diluted compound from compound source plate into the cell plate by Echo. • 4. After compound treatment for 6 hours, removed the plate from incubators and equilibrated at room temperature for 15 minutes. Prepared the HiBit reagent consists of the following ratios: 10 mL of Nano-Glo®-HiBiT Lytic Buffer, 200 uL of Nano-Glo®-HiBiT Lytic Substrate and 100 uL of LgBiT Protein, mixed thoroughly. Added 20 uL of HiBit reagent into each well and spinned the plates at room temperature at 1,000 RPM for 1 minute to be detected. Plates were then shaken at 600 RPM at room temperature for 20 minutes, and read by EnVision. • 5. The inhibition activity was calculated following the formula below:
[formula] • Note: Where HC was obtained from cells treated with 0.1% DMSO only; LC was obtained from culture medium only. • 6. The ABS DC50 was calculated by fitting the Curve using Xlfit (v5.3.1.3), equation 201: […]

T1 sequence (P24864 whole entry): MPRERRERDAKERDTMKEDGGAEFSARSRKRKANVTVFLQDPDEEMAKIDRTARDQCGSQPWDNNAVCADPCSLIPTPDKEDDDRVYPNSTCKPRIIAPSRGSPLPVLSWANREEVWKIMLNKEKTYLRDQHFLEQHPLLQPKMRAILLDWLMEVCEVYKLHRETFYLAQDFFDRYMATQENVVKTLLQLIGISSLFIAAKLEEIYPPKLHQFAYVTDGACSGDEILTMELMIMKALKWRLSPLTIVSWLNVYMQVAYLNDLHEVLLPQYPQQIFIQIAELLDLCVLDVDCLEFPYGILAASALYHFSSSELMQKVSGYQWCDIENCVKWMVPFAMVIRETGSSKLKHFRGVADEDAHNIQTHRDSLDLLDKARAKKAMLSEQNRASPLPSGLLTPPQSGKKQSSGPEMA

CCNE1 HIBIT Protein Quantification Maximum [1]	CDK2 HIBIT Protein Quantification Maximum [2]	DC50 [2]	Dmax [3]	CDK9 HIBIT Protein Quantification Maximum [3]	SMILES
38%	88%	13.1 nM	14%		CC(C)[C@@H]1CN([C@@H](C)c2cccc(S(=O)(=O)N3CC[C@H](Nc4ncc5c(n4)N([C@@H]4CCC[C@@H](O)C4)C(=O)C54CC4)[C@H](F)C3)c2)CCN1c1ccc2c(N3CCC(=O)NC3=O)nn(C)c2c1 [Compound 205]
38%	90%	3.5 nM	23%		C[C@H](c1cccc(S(=O)(=O)N2CC[C@H](Nc3ncc4c(n3)N([C@@H]3CCC[C@@H](O)C3)C(=O)C43CC3)[C@H](F)C2)c1)N1CCN(c2ccc3c(N4CCC(=O)NC4=O)nn(C)c3c2)[C@@H](C)C1 [Compound 207]
44%	78%	6 nM	2%		Cn1c(=O)n(C2CCC(=O)NC2=O)c2cccc(C3CCN(Cc4cccc(S(=O)(=O)N5CCC(Nc6ncc7c(n6)N([C@@H]6CCC[C@@H](O)C6)C(=O)C76CC6)CC5)c4)CC3)c21 (stereo partly drawn) [Compound 148]
34%	75%	25.2 nM	38%		Cn1nc(N2CCC(=O)NC2=O)c2ccc(C3CCN(Cc4cc(S(=O)(=O)N5CCC(Nc6ncc7c(n6)N([C@@H]6CCC[C@@H](O)C6)C(=O)C76CC6)CC5)ccn4)CC3)cc21 [Compound 160, 1-[6-(1-{[4-(4-{7′-[(1R,3R)-3-Hydroxycyclohexyl]-6′-oxospiro[cyclopropane-1,5′-pyrrolo[2,3-d]pyrimidin]-2′-ylamino}piperidin-1-ylsulfonyl)pyridin-2-yl]methyl}piperidin-4-yl)-1-methylindazol-3-yl]-1,3-diazinane-2,4-dione]
47%	88%	5.66 nM		23%	CC(c1cc(S(=O)(=O)N2CC[C@H](Nc3ncc4c(n3)N([C@@H]3CCC[C@@H](O)C3)C(=O)C43CC3)[C@H](F)C2)ccc1F)N1CCC(c2ccc3c(N4CCC(=O)NC4=O)nn(C)c3c2)CC1 (single isomer, unassigned) [Compound 201, 1-(6-{1-[(1R*)-1-{2-Fluoro-5-[(3R,4S)-3-fluoro-4-{7′-[(1R,3R)-3-hydroxycyclohexyl]-6′-oxospiro[cyclopropane-1,5′-pyrrolo[2,3-d]pyrimidin]-2′-ylamino}piperidin-1-ylsulfonyl]phenyl}ethyl]piperidin-4-yl}-1-methylindazol-3-yl)-1,3-diazinane-2,4-dione]
36%	84%	6.77 nM	5%		CC1CN(Cc2cccc(S(=O)(=O)N3CCC(Nc4ncc5c(n4)N([C@@H]4CCC[C@@H](O)C4)C(=O)C54CC4)CC3)c2)CCN1c1ccc2c(N3CCC(=O)NC3=O)nn(C)c2c1 (stereo partly drawn) [Compound 185]
	14%		4%		CC1CCCC1N1C(=O)C2(CC2)c2cnc(NC3CCN(S(=O)(=O)N4CC5(CCN(C(=O)Cc6ccc7c(c6)n(C)c(=O)n7C6CCC(=O)NC6=O)CC5)C4)CC3)nc21 (stereo not drawn) [Compound 54]
47%	88%	2.62 nM			CC1CN(C(C)c2cccc(S(=O)(=O)N3CC[C@H](Nc4ncc5c(n4)N([C@@H]4CCC[C@@H](O)C4)C(=O)C54CC4)[C@H](F)C3)c2)CCC1c1ccc2c(N3CCC(=O)NC3=O)nn(C)c2c1 (stereo partly drawn) [Compound 189]

More lines, now with the values behind:

SMILES	CCNE1 HIBIT Protein Quantification Maximum [1]	CDK2 HIBIT Protein Quantification Maximum [2]	DC50 [2]	Dmax [3]	CDK9 HIBIT Protein Quantification Maximum [3]
CC1CCCC1N1C(=O)C2(CC2)c2cnc(NC3CCN(S(=O)(=O)N4CC5C4CCN5C(=O)CCCCc4ccc5c(c4)n(C)c(=O)n5C4CCC(=O)NC4=O)CC3)nc21 (stereo not drawn) [Compound 110]	5%	20%		14%	
CC1CCCC1N1C(=O)C2(CC2)c2cnc(NC3CCN(S(=O)(=O)N4CC5(CN(CCCCOc6ccc7c(c6)n(C)c(=O)n7C6CCC(=O)NC6=O)C5)C4)CC3)nc21 (stereo not drawn) [Compound 143]	1%	11%		-2%	
CC1CCCC1N1C(=O)C2(CC2)c2cnc(NC3CCN(S(=O)(=O)N4CC5(CCCCN5C(=O)CCCCc5ccc6c(c5)n(C)c(=O)n6C5CCC(=O)NC5=O)C4)CC3)nc21 (stereo not drawn) [Compound 106]	3%	32%		12%	
CC1CCCC1N1C(=O)C2(CC2)c2cnc(NC3CCN(S(=O)(=O)N4CC5C4CCN5C(=O)CCCCc4cccc5c4n(C)c(=O)n5C4CCC(=O)NC4=O)CC3)nc21 (stereo not drawn) [Compound 98]		31%		15%	
CC1CCCC1N1C(=O)C2(CC2)c2cnc(NC3CCN(S(=O)(=O)C4CCCN(C(=O)CCCCc5ccc6c(c5)n(C)c(=O)n6C5CCC(=O)NC5=O)C4)CC3)nc21 (stereo not drawn) [Compound 115]		23%		7%	
